Among the data in patent US7943770B2, “Fused quinoline derivative and use thereof” (Takeda Pharmaceutical Company Limited, priority 2004, dated 2011) are IC50 values, retold here.

The structures appear in SMILES notation. A value given as a limit tells only on which side of the number the result lay.

The target in the assay is T1, hNK2 receptor (Homo sapiens, UniProt P21452).
T1 construct: host or cells: CHO cells
T1 sequence (P21452 1-398): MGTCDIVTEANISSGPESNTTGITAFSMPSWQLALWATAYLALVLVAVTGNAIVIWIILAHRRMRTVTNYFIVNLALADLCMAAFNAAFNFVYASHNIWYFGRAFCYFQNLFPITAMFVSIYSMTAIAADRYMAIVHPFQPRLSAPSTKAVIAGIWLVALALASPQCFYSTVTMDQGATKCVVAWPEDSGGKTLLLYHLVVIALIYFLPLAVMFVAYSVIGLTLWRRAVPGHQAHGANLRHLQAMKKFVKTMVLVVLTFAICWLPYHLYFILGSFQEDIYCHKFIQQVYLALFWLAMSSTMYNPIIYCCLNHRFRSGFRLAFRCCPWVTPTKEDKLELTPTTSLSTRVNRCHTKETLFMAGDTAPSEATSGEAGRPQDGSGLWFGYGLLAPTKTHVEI
As to the kind of experiment: Radio-ligand ([125I]-NKA) receptor binding inhibitory activity using membrane fraction of hNK2 receptor-expressing CHO cell. Particulars: membrane fraction of hNK2 receptor-expressing CHO cells, 25° C., 30 min. Summed up: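 Inhibition of [125I]-NKA binding ([…] solution added) measured after 30 min at 25 °C using hNK2-CHO membrane fraction (20 μg/mL suspension) in pH 7.4 Tris buffer containing MnCl2, BSA and protease inhibitors. Filter-bound counts read; activity calculated as fraction of specific binding, non-specific defined with unlabeled NKA.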
Turning to `O=C(N[C@@H]1CCCC[C@@H]1C(=O)N1CC[C@@H]2[C@H](c3ccccc3)Nc3ccc(F)cc3[C@@H]21)c1ccccc1` [Example 61, N-((1R,2S)-2-{[(3aR,4R,9bR)-8-Fluoro-4-phenyl-2,3,3a,4,5,9b-hexahydro-1H-pyrrolo[3,2-c]quinolin-1-yl]carbonyl}cyclohexyl)benzamide], the IC50 – broadly, the concentration that gives 50% inhibition – is below 10 nM.

Consider `O=C(N[C@@H]1CCCC[C@@H]1C(=O)N1CC[C@@H]2[C@H](c3cccs3)Nc3ccccc3[C@@H]21)c1ccccc1` (relative stereo) [Example 17, N-((1R,2S)-2-{[(3aR*,4R*,9bR*)-4-(2-Thienyl)-2,3,3a,4,5,9b-hexahydro-1H-pyrrolo[3,2-c]quinolin-1-yl]carbonyl}cyclohexyl)benzamide], for which the concentration for half-maximal inhibition (IC50) is below 10 nM.

`Cc1ccccc1C(=O)N[C@@H]1CCCC[C@@H]1C(=O)N1CC[C@@H]2[C@H](c3ccccc3)Nc3ccccc3[C@@H]21` [Example 97, 2-Methyl-N-((1R,2S)-2-{[(3aR,4R,9bR)-4-phenyl-2,3,3a,4,5,9b-hexahydro-1H-pyrrolo[3,2-c]quinolin-1-yl]carbonyl}cyclohexyl)benzamide] displayed an IC50 below 10 nM.

`O=C(N[C@@H]1CCCC[C@@H]1C(=O)N1CC[C@@H]2[C@H](c3ccccc3)Nc3ccccc3[C@@H]21)c1ncc[nH]1` [Example 129, N-((1R,2S)-2-{[(3aR,4R,9bR)-4-Phenyl-2,3,3a,4,5,9b-hexahydro-1H-pyrrolo[3,2-c]quinolin-1-yl]carbonyl}cyclohexyl)-1H-imidazole-2-carboxamide] returned a 50% inhibitory concentration (IC50) below 10 nM.

Turning to `COC[C@@H]1Nc2ccccc2[C@H]2[C@@H]1CCN2C(=O)[C@H]1CCCC[C@H]1NC(=O)c1ccc(-c2ncc[nH]2)cc1` [Example 281, 4-(1H-imidazol-2-yl)-N-((1R,2S)-2-{[(3aR,4R,9bR)-4-(methoxymethyl)-2,3,3a,4,5,9b-hexahydro-1H-pyrrolo[3,2-c]quinolin-1-yl]carbonyl}cyclohexyl)benzamide], the IC50 is below 1 nM.

The compound `COC[C@@H]1Nc2ccccc2[C@H]2[C@@H]1CCN2C(=O)[C@H]1CCCC[C@H]1NC(=O)Nc1ccccc1` [Example 204, N-((1R,2S)-2-{[(3aR,4R,9bR)-4-(Methoxymethyl)-2,3,3a,4,5,9b-hexahydro-1H-pyrrolo[3,2-c]quinolin-1-yl]carbonyl}cyclohexyl)-N′-phenylurea] displayed a concentration for half-maximal inhibition (IC50) below 1 nM.

`COC[C@@H]1Nc2ccccc2[C@H]2[C@@H]1CCN2C(=O)[C@H]1CCCC[C@H]1NC(=O)c1ccc2[nH]cnc2c1` [Example 259, N-((1R,2S)-2-{[(3aR,4R,9bR)-4-(Methoxymethyl)-2,3,3a,4,5,9b-hexahydro-1H-pyrrolo[3,2-c]quinolin-1-yl]carbonyl}cyclohexyl)-1H-benzimidazole-5-carboxamide] had an IC50 below 10 nM.

For the compound `COC[C@@H]1Nc2ccccc2[C@H]2[C@@H]1CCN2C(=O)[C@H]1CCCC[C@H]1NC(=O)c1ccc(-n2ccnc2C)nc1` [Example 287, N-((1R,2S)-2-{[(3aR,4R,9bR)-4-(Methoxymethyl)-2,3,3a,4,5,9b-hexahydro-1H-pyrrolo[3,2-c]quinolin-1-yl]carbonyl}cyclohexyl)-6-(2-methyl-1H-imidazol-1-yl)nicotinamide], the IC50 is below 10 nM.

`Cc1cc(C(=O)N[C@@H]2CCCC[C@@H]2C(=O)N2CC[C@@H]3[C@H](c4ccsc4)Nc4ccccc4[C@@H]32)ccc1C(N)=O` [Example 191, 2-Methyl-N^4-((1R,2S)-2-{[(3aR,4R,9bR)-4-(3-thienyl)-2,3,3a,4,5,9b-hexahydro-1H-pyrrolo[3,2-c]quinolin-1-yl]carbonyl}cyclohexyl)terephthalamide] came in with an IC50 below 1 nM.

For `O=C(N[C@@H]1CCCC[C@@H]1C(=O)N1CC[C@@H]2[C@H](c3ncc[nH]3)Nc3ccccc3[C@@H]21)c1ccccc1` (relative stereo) [Example 54, N-((1R,2S)-2-{[(3aR*,4R*,9bR*)-4-(1H-Imidazol-2-yl)-2,3,3a,4,5,9b-hexahydro-1H-pyrrolo[3,2-c]quinolin-1-yl]carbonyl}cyclohexyl)benzamide], the half-inhibitory concentration (IC50) was below 1 nM.

The compound `N#Cc1ccc(C(=O)N[C@@H]2CCCC[C@@H]2C(=O)N2CC[C@@H]3[C@H](c4ccc[nH]4)Nc4ccccc4[C@@H]32)cc1` [Example 322, 4-Cyano-N-((1R,2S)-2-{[(3aR,4R,9bR)-4-(1H-pyrrol-2-yl)-2,3,3a,4,5,9b-hexahydro-1H-pyrrolo[3,2-c]quinolin-1-yl]carbonyl}cyclohexyl)benzamide] showed an IC50 below 1 nM.

Regarding `O=C(N[C@@H]1CCCC[C@@H]1C(=O)N1CC[C@@H]2[C@H](c3ncc[nH]3)Nc3ccccc3[C@@H]21)c1cccc(C(F)(F)F)c1` [Example 305, N-((1R,2S)-2-{[(3aR,4R,9bR)-4-(1H-Imidazol-2-yl)-2,3,3a,4,5,9b-hexahydro-1H-pyrrolo[3,2-c]quinolin-1-yl]carbonyl}cyclohexyl)-3-(trifluoromethyl)benzamide], the IC50 is below 1 nM.

Consider `COC[C@@H]1Nc2ccccc2[C@H]2[C@@H]1CCN2C(=O)[C@H]1CCCC[C@H]1NC(=O)c1ccc(CNC(C)=O)cc1` [Example 263, 4-[(Acetylamino)methyl]-N-((1R,2S)-2-{[(3aR,4R,9bR)-4-(methoxymethyl)-2,3,3a,4,5,9b-hexahydro-1H-pyrrolo[3,2-c]quinolin-1-yl]carbonyl}cyclohexyl)benzamide], for which the 50% inhibitory concentration (IC50) was below 10 nM.

For the compound `O=C(NCCCN1CCCC1=O)N[C@@H]1CCCC[C@@H]1C(=O)N1CC[C@@H]2[C@H](c3ccccc3)Nc3ccccc3[C@@H]21` [Example 168, N-[3-(2-oxopyrrolidin-1-yl)propyl]-N′-((1R,2S)-2-{[(3aR,4R,9bR)-4-phenyl-2,3,3a,4,5,9b-hexahydro-1H-pyrrolo[3,2-c]quinolin-1-yl]carbonyl}cyclohexyl)urea], the concentration for half-maximal inhibition (IC50) was below 10 nM.

Take `Cc1cc(C(=O)N[C@@H]2CCCC[C@@H]2C(=O)N2CC[C@@H]3[C@H](c4ncc[nH]4)Nc4ccccc4[C@@H]32)ccc1C#N` [Example 309, 4-Cyano-N-((1R,2S)-2-{[(3aR,4R,9bR)-4-(1H-imidazol-2-yl)-2,3,3a,4,5,9b-hexahydro-1H-pyrrolo[3,2-c]quinolin-1-yl]carbonyl}cyclohexyl)-3-methylbenzamide]: the IC50 is below 1 nM.

`CCCCNC(=O)N[C@@H]1CCCC[C@@H]1C(=O)N1CC[C@@H]2[C@H](CCC)Nc3ccccc3[C@@H]21` [Example 199, N-Butyl-N′-((1R,2S)-2-{[(3aR,4S,9bR)-4-propyl-2,3,3a,4,5,9b-hexahydro-1H-pyrrolo[3,2-c]quinolin-1-yl]carbonyl}cyclohexyl)urea] registered an IC50 below 10 nM.

For `O=C(N[C@@H]1CCCC[C@@H]1C(=O)N1CC[C@@H]2[C@H](c3ncc[nH]3)Nc3ccccc3[C@@H]21)c1ccc(Cl)cc1` [Example 303, 4-Chloro-N-((1R,2S)-2-{[(3aR,4R,9bR)-4-(1H-imidazol-2-yl)-2,3,3a,4,5,9b-hexahydro-1H-pyrrolo[3,2-c]quinolin-1-yl]carbonyl}cyclohexyl)benzamide], the 50% inhibitory concentration (IC50) is below 1 nM.

`CC(=O)N[C@@H]1CCCC[C@@H]1C(=O)N1CC[C@@H]2[C@H](c3ccccc3)Nc3ccccc3[C@@H]21` [Example 85, N-((1R,25)-2-{[(3aR,4R,9bR)-4-Phenyl-2,3,3a,4,5,9b-hexahydro-1H-pyrrolo[3,2-c]quinolin-1-yl]carbonyl}cyclohexyl)acetamide] came in with a concentration for half-maximal inhibition (IC50) below 10 nM.

Take `COc1ccc(C(=O)N[C@@H]2CCCC[C@@H]2C(=O)N2CC[C@@H]3[C@H](C4CC4)Nc4ccccc4[C@@H]32)cc1` [Example 180, N-((1R,2S)-2-{[(3aR,4S,9bR)-4-Cyclopropyl-2,3,3a,4,5,9b-hexahydro-1H-pyrrolo[3,2-c]quinolin-1-yl]carbonyl}cyclohexyl)-4-methoxybenzamide]: the half-inhibitory concentration (IC50) is below 1 nM.

`COC[C@@H]1Nc2ccccc2[C@H]2[C@@H]1CCN2C(=O)[C@H]1CCCC[C@H]1NC(=O)c1ccc2c(c1)nc(C)n2C` [Example 276, N-((1R,2S)-2-{[(3aR,4R,9bR)-4-(Methoxymethyl)-2,3,3a,4,5,9b-hexahydro-1H-pyrrolo[3,2-c]quinolin-1-yl]carbonyl}cyclohexyl)-1,2-dimethyl-1H-benzimidazole-5-carboxamide] registered a half-maximal inhibitory concentration (IC50) below 10 nM.

Compound `COC[C@@H]1Nc2ccccc2[C@H]2[C@@H]1CCN2C(=O)[C@H]1CCCC[C@H]1NC(=O)c1ccc(-c2cnco2)cc1` [Example 290, N-((1R,2S)-2-{[(3aR,4R,9bR)-4-(Methoxymethyl)-2,3,3a,4,5,9b-hexahydro-1H-pyrrolo[3,2-c]quinolin-1-yl]carbonyl}cyclohexyl)-4-(1,3-oxazol-5-yl)benzamide] displayed an IC50 below 1 nM.

In the case of `COC[C@@H]1Nc2ccccc2[C@H]2[C@@H]1CCN2C(=O)[C@H]1CCCC[C@H]1NC(=O)c1ccc(F)c(F)c1` [Example 212, 3,4-Difluoro-N-((1R,2S)-2-{[(3aR,4R,9bR)-4-(methoxymethyl)-2,3,3a,4,5,9b-hexahydro-1H-pyrrolo[3,2-c]quinolin-1-yl]carbonyl}cyclohexyl)benzamide], the half-maximal inhibitory concentration (IC50) was below 1 nM.

On to `COC(=O)CCCCC(=O)N[C@@H]1CCCC[C@@H]1C(=O)N1CC[C@@H]2[C@H](c3ccccc3)Nc3ccccc3[C@@H]21` [Example 116, Methyl 6-oxo-6-[((1R,2S)-2-{[(3aR,4R,9bR)-4-phenyl-2,3,3a,4,5,9b-hexahydro-1H-pyrrolo[3,2-c]quinolin-1-yl]carbonyl}cyclohexyl)amino]hexanoate], for which the 50% inhibitory concentration (IC50) was below 10 nM.
